From PubChem BioAssay (NCI)
Where “and” joins values, the source holds several entries; their conditions need not be identical. Equal values may be shown once.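 Results reflect a 48-hour exposure of cells in 96-well plates to compound at five concentrations. GI50 is the concentration that inhibits growth by half. TGI: total growth inhibition.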

System: MDA-MB-468 breast
Experiment: growth of human tumour cells (NCI), 48 h

Question: With `Cc1cc2c(cc1C)N(C(=O)CCl)CCN2C(=O)CCl` as the compound, how does the GI50 read?
Answer: 199 nM

Question: What about the TGI of the same compound?
Answer: 457 nM

Question: For `COc1cc(/C=C2\C(=O)Nc3ccc(N(C)C)cc32)cc(OC)c1OC`, which GI50 is on record?
Answer: 3250 nM

Question: And the TGI?
Answer: 27200 nM

Question: What does the source list for `Cc1nc2sccn2c1-c1csc(Nc2cccc(Cl)c2C)n1`?
Answer: GI50: 1050 nM; TGI: 11000 nM

Question: With `COc1ccc(C2=NN(C=O)C(c3cccc(Nc4ccnc5cc(Cl)ccc45)c3)C2)cc1` (centres undefined) as the compound, how does the GI50 read?
Answer: 417 nM

Question: What about the TGI of the same compound?
Answer: 3480 nM

Question: Which GI50 does the source give for `COc1ccc(N2C(=O)[C@H]3CC(C)c4c([nH]c5ccccc45)[C@H]3C2=O)cc1` (some centres undefined) here?
Answer: 3630 nM

Question: And the TGI?
Answer: 54100 nM

Question: How did the GI50 turn out when `C=CC(=O)Nc1cc2c(Nc3ccc(F)c(Cl)c3)ncnc2cc1OCCCN1CCOCC1` was run?
Answer: < 10 nM and 2.38 nM

Question: What about the TGI of the same compound?
Answer: 194 nM and 101 nM

Question: How did the GI50 turn out when `CN1CCN(Cc2ccc(NC(=O)c3cncc(C#Cc4cnc5ccc(NCCO)nn45)c3)cc2C(F)(F)F)CC1` was run?
Answer: 227 nM

Question: What about the TGI of the same compound?
Answer: 1020 nM

Question: What does the source list for `CCn1c(-c2nonc2N)nc2c(C#CC(C)(C)O)nc(OCCNC)cc21`?
Answer: GI50: 3320 nM; TGI: 10400 nM

Question: How did the GI50 turn out when `COc1cc2ncnc(Nc3ccc(F)c(Cl)c3)c2cc1NC(=O)/C=C/CN1CCCCC1` was run?
Answer: < 10 nM

Question: What about the TGI of the same compound?
Answer: 5.38 nM

Question: How did the GI50 turn out when `Cc1cc(Cl)ccc1Nc1nc(C(F)(F)F)ccc1C(=O)N/N=C/c1ccc([N+](=O)[O-])cc1` was run?
Answer: 1160 nM

Question: What about the TGI of the same compound?
Answer: 5160 nM

Question: Which results are given for `COc1ccc2cc(-c3c(-c4ccncc4)nc(-c4ccc(S(C)(=O)=O)cc4C)n3C)ccc2c1`?
Answer: GI50: 3020 nM; TGI: 14500 nM

Question: For `O=C(O)c1ccc2c(c1)CCCC(c1ccc(Cl)cc1Cl)=C2c1ccc(O[C@H]2CCN(CCCF)C2)cc1`, which GI50 is on record?
Answer: 12000 nM

Question: And the TGI?
Answer: 26900 nM

Question: For `CCCCCCCCCCCCCCCCCC1=NCCN1C(=O)OCCO`, which GI50 is on record?
Answer: 1680 nM

Question: What about the TGI of the same compound?
Answer: 3210 nM

Question: Which GI50 does the source give for `COc1cc(C(=O)Nc2cc3c(cc2Oc2cc(C)cc(C)c2)C(=O)N(C)[C@@H](CC(=O)N(C)O)C(=O)N3)c(Br)c(OC)c1OC` here?
Answer: < 3.33 nM

Question: What about the TGI of the same compound?
Answer: < 3.33 nM

Question: Which results are given for `CC1(C)CC[C@]23CC[C@]4(C)[C@H](CC[C@@H]5[C@@]6(C)CC[C@H](N)C(C)(C)[C@@H]6CC[C@]54C)[C@H]2[C@H]1OC3`?
Answer: GI50: 1700 nM; TGI: 3250 nM

Question: With `CCCOc1ccc2nc(NC(=O)OC)[nH]c2c1` as the compound, how does the GI50 read?
Answer: 274 nM

Question: What about the TGI of the same compound?
Answer: > 100000 nM

Question: Which results are given for `C/C=C1\NC(=O)[C@H]2CSSCCC=C[C@H](CC(=O)N[C@H](C(C)C)C(=O)N2)OC(=O)[C@H](C(C)C)NC1=O`?
Answer: GI50: < 10 nM; TGI: < 12.2 nM

Question: Which GI50 does the source give for `CCn1c2ccc(O)cc2c2c(C)c3c[n+](C)ccc3c(C)c21` here?
Answer: 284 nM

Question: What about the TGI of the same compound?
Answer: 2600 nM

Question: What does the source list for `COc1ccc(-c2ccc(-c3ccc(C(=N)N)cn3)o2)cc1`?
Answer: GI50: 2040 nM; TGI: 5690 nM

Question: How did the GI50 turn out when `COc1cc(-c2n/c(=C\c3c(O)[nH]c4ccc(Cl)cc34)cc3c2=Nc2ccccc2-3)ccc1F` was run?
Answer: 1810 nM

Question: And the TGI?
Answer: 3810 nM

Question: For `CN1C(=O)N(C)C2C1NN=c1s/c(=C\c3ccc(F)cc3)c(=O)n12` (centres undefined), which GI50 is on record?
Answer: 366 nM

Question: What about the TGI of the same compound?
Answer: 4070 nM

Question: `Cc1c(C(=O)NCCN2CCOCC2)cn2ncnc(Oc3ccc(NC(=O)Nc4ccc(Cl)c(C(F)(F)F)c4)cc3)c12` was tested. Which GI50 did it give?
Answer: 1520 nM

Question: And the TGI?
Answer: 3450 nM

Question: Which GI50 does the source give for `COC(=O)C1CCc2sc3ncnc(Nc4cn[nH]c4C(=O)Nc4ccc(CN5CCN(C)CC5)cc4)c3c21` (centres undefined) here?
Answer: 1420 nM

Question: What about the TGI of the same compound?
Answer: > 100000 nM

Question: What does the source list for `CCOc1cccc(/C=N/NC(=O)C(=O)Nc2cccc(C(F)(F)F)c2)c1O`?
Answer: GI50: 2050 nM; TGI: 15800 nM

Question: `CC[PH+](CC)CC.O=COC1OC([S-])C(OC=O)C(OC=O)C1OC=O.[Au+]` (centres undefined) was tested. Which GI50 did it give?
Answer: 659 nM

Question: And the TGI?
Answer: 2310 nM

Question: For `COc1ccccc1/C=C/C(=O)c1ccccc1`, which GI50 is on record?
Answer: 7230 nM

Question: And the TGI?
Answer: 28000 nM

Question: How did the GI50 turn out when `COc1ccc(Cn2cc3c(c2)-c2oncc2CC3)cc1` was run?
Answer: 3200 nM

Question: What about the TGI of the same compound?
Answer: > 100000 nM

Question: `COc1cc2c(=O)n(CCN)c3c4cc5c(cc4ccc3c2cc1OC)OCO5` was tested. Which GI50 did it give?
Answer: 219 nM

Question: What about the TGI of the same compound?
Answer: 881 nM

Question: What does the source list for `Cc1sc2nc3c4ccccc4c(NCCCN(C)C)nn3c(=O)c2c1C`?
Answer: GI50: 1270 nM; TGI: 2800 nM

Question: What does the source list for `CNCCn1c(=O)c2cc(OC)c(OC)cc2c2ccc3cc4c(cc3c21)OCO4`?
Answer: GI50: 74.3 nM; TGI: 244 nM

Question: For `C=C1C(=O)O[C@H]2[C@H]1CC/C(COC(=O)c1cc3cc(Cl)ccc3[nH]1)=C\CC[C@@]1(C)O[C@@H]21`, which GI50 is on record?
Answer: 1890 nM

Question: And the TGI?
Answer: 4070 nM

Question: For `Cc1ccc(-c2csc(NC(=O)CN3CCN(c4cc5c(cc4F)c(=O)c(C(=O)O)cn5C4CC4)CC3)n2)cc1`, which GI50 is on record?
Answer: 697 nM

Question: And the TGI?
Answer: 6530 nM

Question: With `Cn1c2c(c3ccc(Cl)c(Cl)c31)C(C#N)C1(CCNCC1)NC2=O` (centres undefined) as the compound, how does the GI50 read?
Answer: 1630 nM

Question: What about the TGI of the same compound?
Answer: 4290 nM

Question: With `COc1ccc2[nH]c(O)c(C(=Nc3ccc(N(C)C(=O)CN4CCN(C)CC4)cc3)c3ccccc3)c2c1` as the compound, how does the GI50 read?
Answer: 2600 nM

Question: What about the TGI of the same compound?
Answer: 6130 nM

Question: For `Fc1cc2[nH]ncc2c2c3c(c(-c4cn[nH]c4C(F)(F)F)nc12)C1CCC3C1` (centres undefined), which GI50 is on record?
Answer: 1100 nM

Question: What about the TGI of the same compound?
Answer: 3980 nM

Question: Which GI50 does the source give for `CCOc1cc(/C=N\Nc2nnc(C)n2N)c(C)cc1N(CCCl)CCCl` here?
Answer: 321 nM

Question: What about the TGI of the same compound?
Answer: 2230 nM

Question: How did the GI50 turn out when `NC(=O)c1cc2c3ccccc3ccn2c1-c1ccccc1` was run?
Answer: 273 nM

Question: What about the TGI of the same compound?
Answer: 15200 nM
